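Compound exposure: 48 hours, 5 concentrations, 96-well plates. GI50 marks 50% less growth.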 Active and inactive are the calls of the source. No stated cut-off is given here; in the data, active = GI50 up to about 1.1 µM and inactive = higher.
What was measured:
Test in all cases: DTP human tumour cell line panel, 48 h
SR = test system: SR
SNB-19 = test system: SNB-19
RXF 393 = test system: RXF 393
UO-31 = test system: UO-31
MOLT-4 = test system: MOLT-4
MCF7 = test system: MCF7
ACHN = test system: ACHN
HT-29 = test system: HT-29
NCI-H460 = test system: NCI-H460
HCC 2998 = test system: HCC 2998
SW-620 = test system: SW-620
NCI-H23 = test system: NCI-H23
OVCAR-4 = test system: OVCAR-4
CAKI-1 = test system: CAKI-1
OVCAR-3 = test system: OVCAR-3
K562 = test system: K562
DU-145 = test system: DU-145
OVCAR-5 = test system: OVCAR-5
CCRF-CEM = test system: CCRF-CEM

## O=C1N(CN2CCOCC2)CN(CN2CCOCC2)C(=O)N1Cc1ccc(-c2ccc(CN3C(=O)N(CN4CCOCC4)CN(CN4CCOCC4)C3=O)cc2)cc1
SR
  GI50: 2.08 µM (inactive)
SNB-19
  GI50: 10.3 µM (inactive)
RXF 393
  GI50: 10.8 µM (inactive)
UO-31
  GI50: 19.4 µM (inactive)
MOLT-4
  GI50: 4.19 µM (inactive)
MCF7
  GI50: 4 µM (inactive)
ACHN
  GI50: 27.4 µM (inactive)
HT-29
  GI50: 19.6 µM (inactive)
NCI-H460
  GI50: 15.9 µM (inactive)
HCC 2998
  GI50: 11 µM (inactive)
SW-620
  GI50: 8.38 µM (inactive)
NCI-H23
  GI50: 10.6 µM (inactive)
OVCAR-4
  GI50: 14 µM (inactive)
CAKI-1
  GI50: 14.2 µM (inactive)
OVCAR-3
  GI50: 7.78 µM (inactive)
K562
  GI50: 3.75 µM (inactive)
DU-145
  GI50: 16.8 µM (inactive)
OVCAR-5
  GI50: 20.2 µM (inactive)

## O=c1[nH]c(=O)n(C2OC(CO)C(O)C2O)c2ncc(-c3ccc(-c4ccccc4)cc3)nc12 (centres undefined)
SR
  GI50: > 20 µM (inactive)
SNB-19
  GI50: > 20 µM (inactive)
RXF 393
  GI50: > 20 µM (inactive)
UO-31
  GI50: > 20 µM (inactive)
MOLT-4
  GI50: > 20 µM (inactive)
MCF7
  GI50: > 20 µM (inactive)
ACHN
  GI50: > 20 µM (inactive)
HT-29
  GI50: > 20 µM (inactive)
CCRF-CEM
  GI50: > 20 µM (inactive)
NCI-H460
  GI50: > 20 µM (inactive)
HCC 2998
  GI50: > 20 µM (inactive)
SW-620
  GI50: > 20 µM (inactive)
NCI-H23
  GI50: > 20 µM (inactive)
OVCAR-4
  GI50: > 20 µM (inactive)
CAKI-1
  GI50: > 20 µM (inactive)
K562
  GI50: > 20 µM (inactive)
DU-145
  GI50: > 20 µM (inactive)
OVCAR-5
  GI50: > 20 µM (inactive)

## CC(C)C[C@H](NC(=O)CCc1cccc2ccccc12)B(O)O
SR
  GI50: 0.37 µM (active)
SNB-19
  GI50: 5.43 µM (inactive)
RXF 393
  GI50: 0.54 µM (active)
UO-31
  GI50: 1.94 µM (inactive)
MOLT-4
  GI50: 0.375 µM (active)
MCF7
  GI50: 0.56 µM (active)
ACHN
  GI50: 0.498 µM (active)
HT-29
  GI50: 0.628 µM (active)
NCI-H460
  GI50: 3.21 µM (inactive)
HCC 2998
  GI50: 0.64 µM (active)
SW-620
  GI50: 0.676 µM (active)
NCI-H23
  GI50: 1.16 µM (inactive)
OVCAR-4
  GI50: 4.56 µM (inactive)
CAKI-1
  GI50: 0.368 µM (active)
OVCAR-3
  GI50: 0.463 µM (active)
K562
  GI50: 2.34 µM (inactive)
DU-145
  GI50: 4.62 µM (inactive)
OVCAR-5
  GI50: 0.908 µM (active)

## COc1cc2c3c(c1)c1cc(OC)c(OC)cc1c[n+]3CC2
SR
  GI50: 21.8 µM (inactive)
SNB-19
  GI50: 2.49 µM (inactive)
RXF 393
  GI50: 27.9 µM (inactive)
UO-31
  GI50: > 100 µM (inactive)
MOLT-4
  GI50: 2 µM (inactive)
MCF7
  GI50: 15.8 µM (inactive)
ACHN
  GI50: > 50 µM (inactive)
HT-29
  GI50: 23 µM (inactive)
CCRF-CEM
  GI50: > 50 µM (inactive)
NCI-H460
  GI50: 4.32 µM (inactive)
SW-620
  GI50: > 50 µM (inactive)
NCI-H23
  GI50: 7.29 µM (inactive)
OVCAR-4
  GI50: 15 µM (inactive)
CAKI-1
  GI50: 30.6 µM (inactive)
OVCAR-3
  GI50: 12.5 µM (inactive)
K562
  GI50: 10 µM (inactive)
DU-145
  GI50: 31.8 µM (inactive)
OVCAR-5
  GI50: > 50 µM (inactive)

## C=C(CN)CO[Si](C)(C)C(C)(C)C
SR
  GI50: > 100 µM (inactive)
SNB-19
  GI50: > 100 µM (inactive)
UO-31
  GI50: > 100 µM (inactive)
MOLT-4
  GI50: > 100 µM (inactive)
MCF7
  GI50: > 100 µM (inactive)
ACHN
  GI50: > 100 µM (inactive)
HT-29
  GI50: > 100 µM (inactive)
CCRF-CEM
  GI50: > 100 µM (inactive)
NCI-H460
  GI50: > 100 µM (inactive)
HCC 2998
  GI50: > 100 µM (inactive)
SW-620
  GI50: > 100 µM (inactive)
NCI-H23
  GI50: > 100 µM (inactive)
CAKI-1
  GI50: > 100 µM (inactive)
OVCAR-3
  GI50: > 100 µM (inactive)
K562
  GI50: > 100 µM (inactive)
DU-145
  GI50: > 100 µM (inactive)
OVCAR-5
  GI50: > 100 µM (inactive)

## COc1cc2c(/C=C3/C(=O)Nc4ccc(O)cc43)c(Cl)n(Cc3ccccc3)c2cc1C
SR
  GI50: 0.356 µM (active)
SNB-19
  GI50: 0.596 µM (active)
RXF 393
  GI50: 0.352 µM (active)
UO-31
  GI50: 3.76 µM (inactive)
MOLT-4
  GI50: 1.13 µM (inactive)
MCF7
  GI50: 1.18 µM (inactive)
ACHN
  GI50: 0.628 µM (active)
HT-29
  GI50: 0.75 µM (active)
CCRF-CEM
  GI50: 0.873 µM (active)
NCI-H460
  GI50: 0.553 µM (active)
SW-620
  GI50: 0.433 µM (active)
NCI-H23
  GI50: 0.618 µM (active)
OVCAR-4
  GI50: 4.2 µM (inactive)
CAKI-1
  GI50: 0.408 µM (active)
OVCAR-3
  GI50: 0.234 µM (active)
K562
  GI50: 0.583 µM (active)
DU-145
  GI50: 1.16 µM (inactive)
OVCAR-5
  GI50: 2.1 µM (inactive)

## O=C1Nc2cccc(Cl)c2/C1=C\c1c(Cl)nc2n1CCS2
SR
  GI50: > 100 µM (inactive)
SNB-19
  GI50: > 100 µM (inactive)
RXF 393
  GI50: 53.2 µM (inactive)
UO-31
  GI50: > 100 µM (inactive)
MOLT-4
  GI50: > 100 µM (inactive)
MCF7
  GI50: 8.43 µM (inactive)
ACHN
  GI50: > 100 µM (inactive)
HT-29
  GI50: > 100 µM (inactive)
CCRF-CEM
  GI50: > 100 µM (inactive)
NCI-H460
  GI50: > 100 µM (inactive)
HCC 2998
  GI50: > 100 µM (inactive)
SW-620
  GI50: > 100 µM (inactive)
NCI-H23
  GI50: > 100 µM (inactive)
CAKI-1
  GI50: > 100 µM (inactive)
OVCAR-3
  GI50: > 100 µM (inactive)
K562
  GI50: > 100 µM (inactive)
DU-145
  GI50: > 100 µM (inactive)
OVCAR-5
  GI50: > 100 µM (inactive)

## COc1ccc(S(=O)(=O)Nc2ccc(-c3csc(N4C(=O)/C(=C/C=C\c5ccccc5)N=C4c4ccccc4)n3)cc2)cc1Cl
SR
  GI50: 31.8 µM (inactive)
SNB-19
  GI50: 33.7 µM (inactive)
RXF 393
  GI50: 22.3 µM (inactive)
UO-31
  GI50: 28.3 µM (inactive)
MOLT-4
  GI50: 22.8 µM (inactive)
MCF7
  GI50: 32.4 µM (inactive)
ACHN
  GI50: 31.1 µM (inactive)
HT-29
  GI50: 56.8 µM (inactive)
CCRF-CEM
  GI50: 20.1 µM (inactive)
NCI-H460
  GI50: 32.1 µM (inactive)
SW-620
  GI50: 43 µM (inactive)
NCI-H23
  GI50: 18.9 µM (inactive)
OVCAR-4
  GI50: 25.9 µM (inactive)
CAKI-1
  GI50: 36.1 µM (inactive)
OVCAR-3
  GI50: 26.7 µM (inactive)
K562
  GI50: 35.2 µM (inactive)
DU-145
  GI50: 31.8 µM (inactive)
OVCAR-5
  GI50: 38.6 µM (inactive)

## CC[C@H]1C=CCC[C@@]2(C[C@@H]3CC[C@H]4[C@@H](C(=O)OCCCCCCCCCCCCCCCC(=O)N(CCCN)C[C@@H](O)CCN)[C@@]5(CCC[C@@H](C)O5)NC(=[N+]34)N2)O1
SR
  GI50: 1.85 µM (inactive)
RXF 393
  GI50: 1.8 µM (inactive)
UO-31
  GI50: 9.18 µM (inactive)
MOLT-4
  GI50: 1.23 µM (inactive)
MCF7
  GI50: 1.62 µM (inactive)
ACHN
  GI50: 3.9 µM (inactive)
HT-29
  GI50: 1.61 µM (inactive)
NCI-H460
  GI50: 1.74 µM (inactive)
HCC 2998
  GI50: 1.73 µM (inactive)
SW-620
  GI50: 2.12 µM (inactive)
NCI-H23
  GI50: 1.78 µM (inactive)
OVCAR-4
  GI50: 3.4 µM (inactive)
CAKI-1
  GI50: 5.64 µM (inactive)
OVCAR-3
  GI50: 3.91 µM (inactive)
K562
  GI50: 1.48 µM (inactive)
DU-145
  GI50: 1.8 µM (inactive)
OVCAR-5
  GI50: 1.63 µM (inactive)

## CNC(=O)OCc1c(COC(=O)NC)c(-c2ccc(Cl)c(Cl)c2)n2c1SCC2
SR
  GI50: 2.33 µM (inactive)
SNB-19
  GI50: 29.2 µM (inactive)
RXF 393
  GI50: 3.31 µM (inactive)
UO-31
  GI50: 7.46 µM (inactive)
MOLT-4
  GI50: 12 µM (inactive)
MCF7
  GI50: 13 µM (inactive)
ACHN
  GI50: 3.61 µM (inactive)
HT-29
  GI50: 10 µM (inactive)
CCRF-CEM
  GI50: 13.4 µM (inactive)
NCI-H460
  GI50: 9.04 µM (inactive)
HCC 2998
  GI50: 19.7 µM (inactive)
SW-620
  GI50: 10.8 µM (inactive)
NCI-H23
  GI50: 21 µM (inactive)
CAKI-1
  GI50: 4.22 µM (inactive)
OVCAR-3
  GI50: 16.7 µM (inactive)
K562
  GI50: 11 µM (inactive)
DU-145
  GI50: 17.2 µM (inactive)
OVCAR-5
  GI50: 4.06 µM (inactive)

## CC(=O)C(C(=O)C(C)(C)C)C(=O)C(C)(C)C
SR
  GI50: > 100 µM (inactive)
SNB-19
  GI50: > 100 µM (inactive)
RXF 393
  GI50: > 100 µM (inactive)
UO-31
  GI50: > 100 µM (inactive)
MOLT-4
  GI50: > 100 µM (inactive)
MCF7
  GI50: > 100 µM (inactive)
ACHN
  GI50: > 100 µM (inactive)
CCRF-CEM
  GI50: > 100 µM (inactive)
NCI-H460
  GI50: > 100 µM (inactive)
HCC 2998
  GI50: > 100 µM (inactive)
SW-620
  GI50: > 100 µM (inactive)
OVCAR-4
  GI50: > 100 µM (inactive)
CAKI-1
  GI50: > 100 µM (inactive)
K562
  GI50: > 100 µM (inactive)
DU-145
  GI50: > 100 µM (inactive)
OVCAR-5
  GI50: > 100 µM (inactive)
